Experimental data: patent US20250268829A1, “INHALED ANTIBACTERIAL FORMULATIONS FOR TREATING LUNG INFECTIONS” (Board of Regents, The University of Texas System, priority 2022, published 2025)
≈ marks a conversion by molar mass, not a printed value.

Columns and labels:
[1] = test system: Calu-3 cells; assay: Cell viability, MTT assay; assay type: cell-based
Protocol: Calu-3 cells between passage 14-17 were grown in Dulbecco's Modified Eagle Medium (DMEM)+10% Fetal Bovine Serum (FBS)+1% Non-Essential Amino Acids (NEAA)+1% Penicillin Streptomycin (PS)+1% Sodium pyruvate in a 75 cm^2 flask. The media was changed every other day.
To assess the toxicity of the tigecycline powders, Calu-3 cells were seeded into 96-well tissue culture plates at a seeding density of 9000 cells/well. The cells were cultured overnight in media. […] The powders were dissolved in media and 100 μL of each concentration was added to the wells. Control wells containing only media were also set up. […] […] At 3 hours, MTT reagent/culture media was removed and 150 μl of MTT dissolving solvent was added to the well. The well-plate was wrapped in foil and kept on an electronic shaker for 15 minutes. The absorbance was then read at 590 nm using the Tecan microplate reader (Tecan Global Headquarters, Männedorf, Switzerland).

[2] = test system: Calu-3 cell monolayer; assay: Drug permeability across air-liquid interface monolayer; assay type: in vitro ADME
Protocol: Calu-3 cells were plated at a cell density of 33,000 cells/well in 24-well transwell inserts on the apical side and 500 μL media was added to the basolateral side. 48 hours after plating the cells, the cells were airlifted (i.e the media from the apical and basolateral side was aspirated and only the basolateral side was replaced with media).
Cell integrity of the Calu-3 monolayer was measured every other day after airlifting. Briefly, the media from the basolateral side was aspirated. 200 μL of Hank's balanced salt solution (HBSS) buffer was added to the apical side and 500 μL of HBSS was added to the basolateral side. The transepithelial electrical resistance (TEER) was measured using an epithelial Voltohmmeter. The short electrode was dipped into the buffer on the apical side and the longer electrode was dipped into the buffer on the basolateral side. Using the measured value the TEER was calculated using equation (2): […]
The permeation experiments were carried out between days 5-7 after airlifting when the TEER values were ˜700Ω which indicates epithelial cell integrity and the absence of a leaky monolayer. The amount of drug transported across the cell layer were measured as follows: Milled and unmilled powders of tigecycline were dissolved in 200 μL of HBSS at a concentration of 10 μM and 20 μM. The media in the basolateral side was replaced by HBSS. 10 μL sample was collected from the basolateral side at the following intervals: 5 min, 15 min, 30 min, 45 min, 60 min, 2 hours, 4 hours, 6 hours, 8 hours, 12 hours, and 24 hours. After each aliquot, 10 μL of HBSS buffer was replaced into the basolateral chamber. This procedure was repeated to measure the permeability from the basolateral side to the apical side where samples were aliquoted from the apical side. The apparent permeability can be calculated as follows:
[formula] • Where • dQ/dt=Concentration flux • A=Surface area • Co=initial concentration

[3] = HPLC stability upon aerosolization and storage; assay type: physicochemical; conditions: capsule (before aerosolization) and NGI stage 4 (after aerosolization) samples
Protocol: Stability upon aerosolization was assessed using High-Performance Liquid Chromatography (HPLC) by the method described by Lucelia Magalhaes da Silva and Herida Regina Nunes Salgado in Validation of a Stability-Indicating RP-LC Method for the Determination of Tigecycline in Lyophilized Powder, J. Chromatogr. Sci. 51:192-199 (2012). The powder accumulated on Stage 4 (after aerosolization), as well as the capsule (before aerosolization) after running the NGI, was dissolved in a buffer containing 0.015 M oxalic acid and 0.015 M sodium phosphate monobasic at pH 7. The mobile phase used was 75 (0.015 M oxalic acid and 0.015 M sodium phosphate monobasic at pH 7): 25 (Acetonitrile). The flow rate was kept at 1 mL/min and UV absorbance was measured at 245 nm. A forcefully degraded sample (tigecycline left in water for 1 week at RT without protection from light) was also incorporated as a control to assess the ability of the method to detect degradants.
The milled powder was stored for 30 days at 25° C./60% RH and 45° C./75% RH, as specified by the International Council for Harmonization (ICH) intermediate and accelerated stability conditions using sealed amber vials. At the 30-day and 6 month time point, the powder was characterized for its physicochemical properties, stability, and aerosol performance. […]

[4] = test system: S. maltophilia; assay: Minimum inhibitory concentration, OD 600; assay type: cell-based, Stenotrophomonas maltophilia
Protocol: (§1) Stenotrophomonas maltophilia was obtained from American Type Culture Collection (ATCC, Manassas, VA) (ATCC 13637). S. maltophilia dried pellet was reconstituted in nutrient broth and frozen until further use. An inoculation loop was used to collect S. maltophilia from the stock solution and was streaked onto nutrient agar plates. The plates were incubated at 37° C. for 24 hours. At the 24-hour point, an inoculation loop was used to transfer bacteria from the plate to 5 mL of liquid nutrient broth. The bacteria in the liquid medium were left overnight on a shaker at 37° C.
Liquid bacterial culture was prepared as described above. 200 μL of the overnight liquid culture was added to 96 well plates. Varying concentrations of TIG were added to the 96 well plates ranging from 0.12 μg/mL to 64 μg/mL. All TIG concentrations were tested in triplicate. The well plate was allowed to incubate at 37° C. for 24 hours, and the MIC was determined using the OD 600 values.

[5] = test system: Mycobacterium abscessus; assay: In vitro efficacy (MIC) against Mycobacterium abscessus; assay type: cell-based; conditions: Mycobacteroides abscessus, Mab in Middlebrook 7H9 broth; read-out: minimal inhibitory concentration (MIC)
Protocol: Mab was cultured in Middlebrook 7H9 liquid broth for 48 hours. 100 μL of inoculum was then added to 96 well plate with 50 μL of different concentrations of Tigecycline (0.1 to 240 μg/mL) (FIG. 3).

[6] = test system: S. maltophilia biofilm; assay: Biofilm eradication (MBEC), XTT assay; assay type: cell-based, Stenotrophomonas maltophilia
Protocol: as §1
S. maltophilia was grown as described above. 200 μL of the bacteria in nutrient broth was added onto 96 well plates for varying amounts of time ranging from 1 day to 5 days. The bacterial biomass at each time point was assessed using crystal violet assay. Briefly, the liquid media was aspirated at each time point, and the wells were washed twice with 200 μL of phosphate-buffered saline (PBS). […] The bound dye was then solubilized in 33% v/v acetic acid, and the absorbance was measured at 595 nm. […]
200 μL of this standardized culture was added to 96 well plates and allowed to grow overnight at 37° C. […] At 24 hours, the viability of the bacteria was evaluated using the XTT assay. […] After 3 hours, the absorbance was measured at 490 nm.

[7] = test system: S. maltophilia; conditions: cited from earlier work

CN(C)c1cc(NC(=O)CNC(C)(C)C)c(O)c2c1C[C@H]1C[C@H]3[C@H](N(C)C)C(O)=C(C(N)=O)C(=O)[C@@]3(O)C(O)=C1C2=O [Tigecycline, tigecycline]
effect on Calu-3 cell viability ([1]; 5 mM and 7.5 mM, 4-hour and 8-hour point): significant cell death
concentration up to which Calu-3 cells were viable ([1]; 4-hour and 8-hour point, submerged culture): 2500 µM
maximum concentration that allowed the cells to maintain their viability ([1]; 12-hour point): 125 µM
maximum concentration that allowed the cells to maintain their viability ([1]; 24 hours): 25 µM
tigecycline permeated through the cell monolayer ([2]; apical to basolateral, across a 12-hour time point, HPLC limit of detection 1 μM): less than 1 μM
drug remaining in the apical (donor) side ([2]; at the end of the experiment): ~100%
permeability across the cell monolayer ([2]; basolateral to apical direction): impermeability
degradation peaks in HPLC chromatograms [3]: none of the degradation peaks were observed
inhibition of growth of S. maltophilia ([4]; 0.1 μg/mL and 0.25 μg/mL): failed to inhibit bacterial growth
OD 600 value normalized to control ([4]; 0.12 and 0.25 μg/mL): ~1
MIC ([4]; Stenotrophomonas maltophilia, 24 hours, OD 600, read-out: Minimum Inhibitory Concentrations (MIC)): 0.5 µg/mL (≈ 0.854 µM)
OD 600 values versus control ([4]; concentrations >0.5 μg/mL): significantly lower than that of control
inhibition of growth of S. maltophilia ([4]; concentrations equal to or greater than 0.5 μg/mL): completely
MIC [5]: > 4 µg/mL
inhibition of biofilm formation ([6]; concentrations above 0.5 μM, 24 hours): ~85%
inhibition of S. maltophilia biofilm formation ([6]; concentrations lower than 0.5 μM): could not effectively inhibit
susceptibility of S. maltophilia [7]: more than 90%
